The values that follow come from patent publication US12310975B2, “Modulators of BCL6 proteolysis and associated methods of use” (Arvinas Operations, Inc., priority 2019, dated 2025).

Usually IC50 stands for the concentration needed to halve the response being measured. What is called Dmax is the greatest extent of degradation seen.

The target of the experiment is BCL6 (Homo sapiens (Human), UniProt P41182). Description: Immunofluorescence high content imaging of BCL6 degradation in T47D cells. The experiment is classed as cell-based. The note with it: T47D cells. In short, it runs like this: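 BCL6 loss was quantified by high-content imaging (10×, 4 fields/well) after PFA fixation and anti-BCL6/Alexa-488 staining with Hoechst nuclear and CellMask counterstains. Compounds were applied for 3 days to T47D breast cancer cells in RPMI-10% FBS, 11 points, 3-fold steps, top 0.1 or 1 μM.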
With `CNC(=O)COc1cc2cc(Nc3nc(N4CCN(CC5CCN(c6ccc(C(=O)NC7CCC(=O)NC7=O)c(OC(C)C)c6)CC5)CC4)ncc3Cl)ccc2n(C)c1=O` (centres unmarked) [compound 358, 4-[4-({4-[5-chloro-4-({1-methyl-3-[(methylcarbamoyl)methoxy]-2-oxo-1,2-dihydroquinolin-6-yl}amino)pyrimidin-2-yl]piperazin-1-yl}methyl)piperidin-1-yl]-N-(2,6-dioxopiperidin-3-yl)-2-(propan-2-yloxy)benzamide], the IC50 is no less than 100 nM.
The compound `CNC(=O)COc1cc2cc(Nc3nc(N4CCN(CC5CCN(c6cnc(C(=O)NC7CCC(=O)NC7=O)c(OC)c6)CC5)CC4)ncc3Cl)ccc2n(C)c1=O` (centres unmarked) [compound 359, 5-[4-({4-[5-chloro-4-({1-methyl-3-[(methylcarbamoyl)methoxy]-2-oxo-1,2-dihydroquinolin-6-yl}amino)pyrimidin-2-yl]piperazin-1-yl}methyl)piperidin-1-yl]-N-(2,6-dioxopiperidin-3-yl)-3-methoxypyridine-2-carboxamide] displayed a Dmax of 50 to 70% and an IC50 of 10 to 50 nM.
For the compound `CNC(=O)COc1cc2cc(Nc3nc(N4CCC(CN5CCC(c6nc(C(=O)NC7CCC(=O)NC7=O)cs6)CC5)CC4)ncc3Cl)ccc2n(C)c1=O` (centres unmarked) [compound 360, 2-[1-({1-[5-chloro-4-({1-methyl-3-[(methylcarbamoyl)methoxy]-2-oxo-1,2-dihydroquinolin-6-yl}amino)pyrimidin-2-yl]piperidin-4-yl}methyl)piperidin-4-yl]-N-(2,6-dioxopiperidin-3-yl)-1,3-thiazole-4-carboxamide], the Dmax was in the range of 50 to 70% and the IC50 was 10 to 50 nM.
`CNC(=O)COc1cc2cc(Nc3nc(N4CCC(CN5CCC(c6ccc(C(=O)NC7CCC(=O)NC7=O)o6)CC5)CC4)ncc3Cl)ccc2n(C)c1=O` (centres unmarked) [compound 361, 5-[1-({1-[5-chloro-4-({1-methyl-3-[(methylcarbamoyl)methoxy]-2-oxo-1,2-dihydroquinolin-6-yl}amino)pyrimidin-2-yl]piperidin-4-yl}methyl)piperidin-4-yl]-N-(2,6-dioxopiperidin-3-yl)furan-2-carboxamide] returned a maximal degradation (Dmax) of less than 50% and a half-inhibitory concentration (IC50) of 10 to 50 nM.
The compound `CNC(=O)COc1cc2cc(Nc3nc(N4CCC(OC5CC6(C5)CN(c5ccc7c(c5)C(=O)N(C5CCC(=O)NC5=O)C7=O)C6)CC4)ncc3Cl)ccc2n(C(C)C)c1=O` (centres unmarked) [compound 362, 2-{[6-({5-chloro-2-[4-({2-[2-(2,6-dioxopiperidin-3-yl)-1,3-dioxo-2,3-dihydro-1H-isoindol-5-yl]-2-azaspiro[3.3]heptan-6-yl}oxy)piperidin-1-yl]pyrimidin-4-yl}amino)-2-oxo-1-(propan-2-yl)-1,2-dihydroquinolin-3-yl]oxy}-N-methylacetamide] gave a Dmax of 50 to 70% and a half-maximal inhibitory concentration (IC50) of less than 10 nM.
In turn, `CNC(=O)COc1cc2cc(Nc3nc(N4CCC(OC5CC6(C5)CN(c5cccc7c5C(=O)N(C5CCC(=O)NC5=O)C7=O)C6)CC4)ncc3Cl)ccc2n(C(C)C)c1=O` (centres unmarked) [compound 363, 2-{[6-({5-chloro-2-[4-({2-[2-(2,6-dioxopiperidin-3-yl)-1,3-dioxo-2,3-dihydro-1H-isoindol-4-yl]-2-azaspiro[3.3]heptan-6-yl}oxy)piperidin-1-yl]pyrimidin-4-yl}amino)-2-oxo-1-(propan-2-yl)-1,2-dihydroquinolin-3-yl]oxy}-N-methylacetamide] came in with a Dmax of no less than 70% and an IC50 of less than 10 nM.
As for `CCn1c(=O)c(OCC(=O)NC)cc2cc(Nc3nc(N4CCC(CN5CCC(c6ccc7c(c6)C(=O)N(C6CCC(=O)NC6=O)C7=O)CC5)CC4)ncc3Cl)ccc21` (centres unmarked) [compound 364, 2-{[6-({5-chloro-2-[4-({4-[2-(2,6-dioxopiperidin-3-yl)-1,3-dioxo-2,3-dihydro-1H-isoindol-5-yl]piperidin-1-yl}methyl)piperidin-1-yl]pyrimidin-4-yl}amino)-1-ethyl-2-oxo-1,2-dihydroquinolin-3-yl]oxy}-N-methylacetamide], the Dmax was no less than 70% and the half-maximal inhibitory concentration (IC50) lay within 10 to 50 nM.
Take `CNC(=O)COc1cc2cc(Nc3nc(N4CCC(CN5CCC(c6ccc7c(c6)C(=O)N(C6CCC(=O)NC6=O)C7=O)CC5)CC4)ncc3Cl)ccc2n(C(C)C)c1=O` (centres unmarked) [compound 365, 2-{[6-({5-chloro-2-[4-({4-[2-(2,6-dioxopiperidin-3-yl)-1,3-dioxo-2,3-dihydro-1H-isoindol-5-yl]piperidin-1-yl}methyl)piperidin-1-yl]pyrimidin-4-yl}amino)-2-oxo-1-(propan-2-yl)-1,2-dihydroquinolin-3-yl]oxy}-N-methylacetamide]: the Dmax was no less than 70% and the IC50 was less than 10 nM.
For the compound `CNC(=O)COc1cc2cc(Nc3nc(N4CCC(F)(CN5CCN(c6ccc(C(=O)NC7CCC(=O)NC7=O)c(OC)c6)CC5)CC4)ncc3Cl)ccc2n(C)c1=O` (centres unmarked) [compound 366, 4-[4-({1-[5-chloro-4-({1-methyl-3-[(methylcarbamoyl)methoxy]-2-oxo-1,2-dihydroquinolin-6-yl}amino)pyrimidin-2-yl]-4-fluoropiperidin-4-yl}methyl)piperazin-1-yl]-N-(2,6-dioxopiperidin-3-yl)-2-methoxybenzamide], the maximal degradation (Dmax) is 50 to 70% and the half-inhibitory concentration (IC50) was less than 10 nM.
On to `CNC(=O)COc1cc2cc(Nc3nc(N4CCN(CC5(F)CCN(c6ccc(C(=O)NC7CCC(=O)NC7=O)c(OC)c6)CC5)CC4)ncc3Cl)ccc2n(C)c1=O` (centres unmarked) [compound 367, 4-[4-({4-[5-chloro-4-({1-methyl-3-[(methylcarbamoyl)methoxy]-2-oxo-1,2-dihydroquinolin-6-yl}amino)pyrimidin-2-yl]piperazin-1-yl}methyl)-4-fluoropiperidin-1-yl]-N-(2,6-dioxopiperidin-3-yl)-2-methoxybenzamide], for which the Dmax was 50 to 70% and the IC50 was less than 10 nM.
For `CNC(=O)COc1cc2cc(Nc3nc(N4CCN(CC5CCN(c6cc(OC)c(C(=O)NC7CCC(=O)NC7=O)c(OC)c6)CC5)CC4)ncc3Cl)ccc2n(C)c1=O` (centres unmarked) [compound 368, 4-[4-({4-[5-chloro-4-({1-methyl-3-[(methylcarbamoyl)methoxy]-2-oxo-1,2-dihydroquinolin-6-yl}amino)pyrimidin-2-yl]piperazin-1-yl}methyl)piperidin-1-yl]-N-(2,6-dioxopiperidin-3-yl)-2,6-dimethoxybenzamide] the same measures were less than 50% and 10 to 50 nM.
Turning to `CCn1c(=O)c(OCC(=O)NC)cc2cc(Nc3nc(N4CCN([C@H]5C[C@H](COc6ccc7c(c6)C(=O)N(C6CCC(=O)NC6=O)C7=O)N(C)C5)CC4)ncc3Cl)ccc21` (stereo partly drawn) [compound 371, 2-({6-[(5-chloro-2-{4-[(3S,5R)-5-({[2-(2,6-dioxopiperidin-3-yl)-1,3-dioxo-2,3-dihydro-1H-isoindol-5-yl]oxy}methyl)-1-methylpyrrolidin-3-yl]piperazin-1-yl}pyrimidin-4-yl)amino]-1-ethyl-2-oxo-1,2-dihydroquinolin-3-yl}oxy)-N-methylacetamide], the Dmax lay within 50 to 70% and the IC50 is no less than 100 nM.
